This note sets out measurements from patent US6875760B2 (Novo Nordisk A/S, priority 1999, dated 2005).

T1 sequence (P47871 26-477): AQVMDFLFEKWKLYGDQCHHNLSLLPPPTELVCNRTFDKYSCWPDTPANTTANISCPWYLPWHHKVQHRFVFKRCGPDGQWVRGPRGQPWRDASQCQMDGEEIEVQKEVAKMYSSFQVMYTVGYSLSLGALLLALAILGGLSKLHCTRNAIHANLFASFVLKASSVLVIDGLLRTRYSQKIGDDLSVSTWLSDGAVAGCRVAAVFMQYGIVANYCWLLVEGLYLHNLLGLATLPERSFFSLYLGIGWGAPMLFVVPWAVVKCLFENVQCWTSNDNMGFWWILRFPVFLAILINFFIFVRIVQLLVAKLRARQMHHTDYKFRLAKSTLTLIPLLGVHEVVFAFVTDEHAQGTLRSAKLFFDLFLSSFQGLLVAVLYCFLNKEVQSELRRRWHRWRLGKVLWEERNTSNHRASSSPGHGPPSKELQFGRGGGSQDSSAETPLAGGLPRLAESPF

One test has as its target T1, cloned human glucagon receptor (Homo sapiens, UniProt P47871).
T1 construct: expressed in transfected cells; plasma membrane preparation
In words: Glucagon Binding Assay (II). The note with it: plasma membranes of BHK cells expressing the receptor; read-out: Glu Bd Assay (II) IC50.
Take `O=C(Nc1nn[nH]n1)c1ccc(CN(C(=O)Nc2ccc3[nH]ccc3c2)c2ccc(C3CCCCC3)cc2)cc1` [Example 594, 4-{1-(4-Cyclohexylphenyl)-3-(1H-indol-5-yl)ureidomethyl]-N-(2H-tetrazol-5-yl)benzamide]: the IC50 worked out at 354 nM. Still for that read-out and setting: for `O=C(Nc1nn[nH]n1)c1ccc(CN(C(=O)Nc2cccc(I)c2)c2ccc(C3=CCCCC3)cc2)cc1` the value was 26 nM; for `O=C(Nc1nn[nH]n1)c1ccc(CN(Cc2ccc(OC(F)(F)F)cc2)c2ccc(C3CCCCC3)cc2)cc1` [Example 388, 4-{[(4-Cyclohexylphenyl)-(4-trifluoromethoxybenzyl)amino]methyl}-N-(2H-tetrazol-5-yl)benzamide], 156 nM; for `CC(C)(C)C1CCC(N(Cc2ccc(S(=O)(=O)NCCC(=O)O)cc2)C(=O)Nc2ccc(SC(F)(F)F)cc2)CC1` (stereo not drawn) [Example 105, 3-{4-[1-(4-tert-Butylcyclohexyl)-3-(4-trifluoromethylsulfanylphenyl)ureidomethyl]benzenesulfonylamino)propionic acid], 446 nM. The same measure, in the same setting: in the case of `CC(C)(C)[C@H]1CC[C@H](N(Cc2ccc(C(=O)Nc3nn[nH]n3)cc2)C(=O)Nc2ccc(OC(F)(F)F)cc2)CC1` [Example 158, 4-[1-(trans-4-tert-Butylcyclohexyl)-3-(4-trifluoromethoxyphenyl)ureidomethyl]-N-(2H-tetrazol-5-yl)benzamide] it was 7 nM; in that of `O=C(O)CCNC(=O)c1ccc(CN(Cc2cccc(Cl)c2)c2ccc(C3CCCCC3)cc2)cc1` [Example 583], 205 nM. Take `CC(C)(C)C1CCC(N(Cc2ccc(C(=O)NCCC(=O)O)cc2)C(=O)CNC(=O)OCC2c3ccccc3-c3ccccc32)CC1` (stereo not drawn): the IC50 was found to be 687 nM. In the case of `CC1(C)[C@@H]2CC[C@@H](CN(Cc3ccc(C(=O)NCCC(=O)O)cc3)C(=O)Nc3ccc(OC(F)(F)F)cc3)[C@@H]1C2` [Example 234, 3-{4-[1-([(1S,2R,5R)-6,6-Dimethylbicyclo[3.1.1]hept-2-yl]methyl)-3-(4-trifluoromethoxyphenyl)ureidomethyl]benzoylamino}propionic acid], the IC50 was 112 nM. As for `CC1CC(N(Cc2ccc(C(=O)NCCC(=O)O)cc2)C(=O)Nc2cc(Cl)cc(Cl)c2)CC(C)(C)C1` (stereo not drawn) [Example 176, 3-{4-[3-(3,5-Dichlorophenyl)-1-(3,3,5-trimethylcyclohexyl)ureidomethyl]benzoylamino)propionic acid], the IC50 worked out at 641 nM.

The same test, now with this note: screened at 1 μM; library compounds; read-out: displacement of the glucagon tracer when screened at 1 μM concentration in the glucagon binding assay II.
As to `CC(C)(C)C1CCC(N(Cc2ccc(C(=O)Nc3ncnc4[nH]ncc34)cc2)C(=O)Nc2ccc(Cl)cc2)CC1` (stereo not drawn) [Example 164, 4-[1-(4-tert-Butylcyclohexyl)-3-(4-chlorophenyl)ureidomethyl]-N-(1H-pyrazolo[3,4-d]pyrimidin-4-yl)benzamide], the inhibition at 1 µM was above 50%.

`CCOc1ccc(NC(=O)N(Cc2ccc(C(=O)NCCC(=O)O)cc2)C2CCC(C(C)(C)C)CC2)cc1` (stereo not drawn) [Example 200, 3-{4-[1-(4-tert-Butylcyclohexyl)-3-(4-ethoxyphenyl)ureidomethyl]benzoylamino}propionic acid]: the inhibition at 1 µM was above 50%. The same measure, in the same setting: in the case of `COc1ccc(CN(Cc2ccc(C(=O)NCCC(=O)O)cc2)Cc2cccc(Oc3cccc(C(F)(F)F)c3)c2)cc1OC` [Example 151, 3-(4-{[(3,4-Dimethoxybenzyl)-(3-[3-trifluoromethylphenoxy]benzyl)amino]methyl}benzoylamino)propionic acid] it was above 50%. The same measure, in the same setting: for `O=C(O)CCNC(=O)c1ccc(CN(CCc2ccccc2)Cc2ccc(Oc3ccccc3)cc2)cc1` [Example 145, 3-(4-{[(2-Phenylethyl)-(4-phenoxybenzyl)amino]methyl}benzoylamino)propionic acid] the value was above 50%. On the same count and under the same terms, in the case of `O=C(O)CCNC(=O)c1ccc(CN(Cc2ccccc2Cl)CC(c2ccccc2)c2ccccc2)s1` [Example 144, 3-(5-{[(2,2-Diphenylethyl)-(2-chlorobenzyl)amino]methyl}thiophene-2-carbonylamino)propionic acid] it was above 50%; in that of `Cc1cc(C)cc(NC(=O)N(Cc2ccc(OCCCC(=O)O)cc2)c2ccc(C3CCCCC3)cc2)c1` [Example 219, 4-{4-[1-(4-Cyclohexylphenyl)-3-(3,5-dimethylphenyl)ureidomethyl]phenoxy}butyric acid], above 50%. Regarding `O=C(O)CCNC(=O)c1ccc(CN(CC2(O)CCCCC2)C(=O)Nc2ccc3c(c2)OCO3)cc1` [Example 123, 3-{4-[1-(1-Hydroxycyclohexylmethyl)-3-(3,4-methylenedioxyphenyl)ureidomethyl]benzoylamino)propionic acid], the inhibition at 1 µM was above 50%.

Turning to `O=C(O)CCNC(=O)c1ccc(CN(C(=O)Nc2ccc(Cl)c(C(F)(F)F)c2)c2ccc3c(c2)OC(F)(F)C(F)(F)O3)cc1` [Example 191, 3-{4-[3-(4-Chloro-3-trifluoromethyl-phenyl)-1-(2,2,3,3-tetrafluoro-2,3-dihydrobenzo[1,4]-dioxin-6-yl)ureidomethyl]benzoylamino}propionic acid], the inhibition at 1 µM is above 50%. As for `O=C(O)CCCOc1ccc(CN(C(=O)Nc2ccc(Cl)c(C(F)(F)F)c2)c2ccc(C3CCCCC3)cc2)cc1` [Example 217, 4-{4-[3-(4-Chloro-3-trifluoromethylphenyl)-1-(4-cyclohexylphenyl)ureidomethyl]phenoxy}butyric acid], the inhibition at 1 µM was above 50%. Still for that read-out and setting: in the case of `CC1(C)C2CCC(CN(Cc3ccc(C(=O)NCCC(=O)O)cc3)C(=O)Nc3cccc(SC(F)(F)F)c3)C1C2` (stereo not drawn) [Example 204, 3-{4-[1-(6,6-Dimethylbicyclo[3.1.1]hept-2-ylmethyl)-3-(3-trifluoromethylsulfanylphenyl)ureidomethyl]benzoylamino}propionic acid] it was above 50%; in that of `CC(C)(C)C1CCC(N(Cc2cccc(C(=O)NCCC(=O)O)c2)C(=O)Nc2cc(Cl)cc(Cl)c2)CC1` (stereo not drawn) [Example 135, 3-{3-[1-(4-tert-Butylcyclohexyl)-3-(3,5-dichlorophenyl)ureidomethyl]benzoylamino)propionic acid], above 50%. Turning to `CCCCc1ccc(NC(=O)N(Cc2ccc(C(=O)NCCC(=O)O)cc2)Cc2ccccc2OC(F)(F)F)cc1` [Example 116, 3-{4-[1-(2-Trifluoromethoxybenzyl)-3-(4-butylphenyl)ureidomethyl]benzoylamino)propionic acid], the inhibition at 1 µM was above 50%. Regarding `CC(C)(C)C1CCC(N(Cc2ccc(C(=O)NCCC(=O)O)cc2)C(=O)Nc2ccc(Br)cc2)CC1` (stereo not drawn) [Example 133, 3-{4-[3-(4-Bromophenyl)-1-(4-tert-butylcyclohexyl)ureidomethyl]benzoylamino)propionic acid], the inhibition at 1 µM is above 50%. The same measure, in the same setting: in the case of `CC(C)(C)C1CCC(N(Cc2ccc(C(=O)Nc3ncnc4[nH]ncc34)cc2)C(=O)Nc2ccc(OC(F)(F)F)cc2)CC1` (stereo not drawn) [Example 165, 4-[1-(4-tert-Butylcyclohexyl)-3-(4-trifluoromethoxyphenyl)ureidomethyl]-N-(1H-pyrazolo[3,4-d]pyrimidin-4-yl)benzamide] it was above 50%; in that of `O=C(O)CCNC(=O)c1ccc(CN(Cc2ccc(Cl)cc2)Cc2ccc(Cl)cc2)s1` [Example 148, 3-(5-{[Bis-(4-chlorobenzyl)amino]methyl}thiophene-2-carbonylamino)propionic acid], above 50%.

One may read the IC50 as the midpoint of a concentration-inhibition curve.
